Assay results as given in ChEMBL document CHEMBL5550123, “Discovery of novel pyridone-benzamide derivatives possessing a 1-methyl-2-benzimidazolinone moiety as potent EZH2 inhibitors for the treatment of B-cell lymphomas” (Bioorg Med Chem, 2024).

Assays:
[1] = system: KARPAS-422; test: Induction of cell cycle arrest in human KARPAS-422 cells assessed as accumulation of cells at G2 phase at 20 nM incubated for 72 hrs again compound diluted in growth medium measured after 96 hrs by propidium iodide staining based flow cytometry analysis (reference value: 16.41%); type: functional; details: time 168 hrs
[2] = system: KARPAS-422; test: Induction of apoptosis in human KARPAS-422 cells assessed as viable cells at 20 nM incubated for 72 hrs again compound diluted in growth medium measured after 96 hrs by annexin-V FITC and propidium iodide based flow cytometry analysis (reference value: 95.57%); type: functional; details: time 168 hrs, read-out: Activity
[3] = system: KARPAS-422; test: Induction of apoptosis in human KARPAS-422 cells assessed as late apoptotic cells at 10 nM incubated for 72 hrs again compound diluted in growth medium measured after 96 hrs by annexin-V FITC and propidium iodide based flow cytometry analysis (reference value: […]%); type: functional; details: time 168 hrs
[4] = system: KARPAS-422; test: Induction of apoptosis in human KARPAS-422 cells assessed as early apoptotic cells at 10 nM incubated for 72 hrs again compound diluted in growth medium measured after 96 hrs by annexin-V FITC and propidium iodide based flow cytometry analysis (reference value: 2.62%); type: functional; details: time 168 hrs
[5] = Inhibition of EZH2 Y641F mutant (unknown origin) preincubated for 15 mins followed by substrate addition and measured after 45 mins by AlphaLISA assay; design: species or system Homo sapiens
[6] = Inhibition of EZH2 Y641N mutant (unknown origin) preincubated for 15 mins followed by substrate addition and measured after 45 mins by AlphaLISA assay; design: species or system Homo sapiens
[7] = system: KARPAS-422; test: Induction of apoptosis in human KARPAS-422 cells assessed as viable cells at 10 nM incubated for 72 hrs again compound diluted in growth medium measured after 96 hrs by annexin-V FITC and propidium iodide based flow cytometry analysis (reference value: 95.57%); type: functional; details: time 168 hrs, read-out: Activity
[8] = system: KARPAS-422; test: Induction of cell cycle arrest in human KARPAS-422 cells assessed as accumulation of cells at S phase at 5 nM incubated for 72 hrs again compound diluted in growth medium measured after 96 hrs by propidium iodide staining based flow cytometry analysis (reference value: 35.89%); type: functional; details: time 168 hrs
[9] = Metabolic stability in human liver microsomes assessed as intrinsic clearance at 1 uM measured upto 60 mins in presence of NADPH by LC-MS/MS analysis; type: ADME, Microsome; details: read-out: CLH
[10] = system: KARPAS-422; test: Induction of apoptosis in human KARPAS-422 cells assessed as late apoptotic cells at 5 nM incubated for 72 hrs again compound diluted in growth medium measured after 96 hrs by annexin-V FITC and propidium iodide based flow cytometry analysis (reference value: […]%); type: functional; details: time 168 hrs
[11] = system: KARPAS-422; test: Induction of cell cycle arrest in human KARPAS-422 cells assessed as accumulation of cells at G1 phase at 20 nM incubated for 72 hrs again compound diluted in growth medium measured after 96 hrs by propidium iodide staining based flow cytometry analysis (reference value: 47.71%); type: functional; details: time 168 hrs
[12] = system: KARPAS-422; test: Induction of cell cycle arrest in human KARPAS-422 cells assessed as accumulation of cells at G2 phase at 10 nM incubated for 72 hrs again compound diluted in growth medium measured after 96 hrs by propidium iodide staining based flow cytometry analysis (reference value: 16.41%); type: functional; details: time 168 hrs
[13] = system: KARPAS-422; test: Induction of cell cycle arrest in human KARPAS-422 cells assessed as accumulation of cells at G2 phase at 2.5 nM incubated for 72 hrs again compound diluted in growth medium measured after 96 hrs by propidium iodide staining based flow cytometry analysis (reference value: 16.41%); type: functional; details: time 168 hrs
[14] = system: KARPAS-422; test: Induction of cell cycle arrest in human KARPAS-422 cells assessed as accumulation of cells at S phase at 2.5 nM incubated for 72 hrs again compound diluted in growth medium measured after 96 hrs by propidium iodide staining based flow cytometry analysis (reference value: 35.89%); type: functional; details: time 168 hrs
[15] = system: KARPAS-422; test: Induction of apoptosis in human KARPAS-422 cells assessed as early apoptotic cells at 5 nM incubated for 72 hrs again compound diluted in growth medium measured after 96 hrs by annexin-V FITC and propidium iodide based flow cytometry analysis (reference value: 2.62%); type: functional; details: time 168 hrs
[16] = system: KARPAS-422; test: Induction of apoptosis in human KARPAS-422 cells assessed as late apoptotic cells at 2.5 nM incubated for 72 hrs again compound diluted in growth medium measured after 96 hrs by annexin-V FITC and propidium iodide based flow cytometry analysis (reference value: […]%); type: functional; details: time 168 hrs
[17] = system: KARPAS-422; test: Induction of apoptosis in human KARPAS-422 cells assessed as early apoptotic cells at 20 nM incubated for 72 hrs again compound diluted in growth medium measured after 96 hrs by annexin-V FITC and propidium iodide based flow cytometry analysis (reference value: 2.62%); type: functional; details: time 168 hrs
[18] = system: KARPAS-422; test: Induction of apoptosis in human KARPAS-422 cells incubated for 72 hrs again compound diluted in growth medium measured after 96 hrs by annexin-V FITC and propidium iodide based flow cytometry analysis; type: functional, cell-based; details: dose 2.5-20 nM, time 168.0 hrs
[19] = system: KARPAS-422; test: Antiproliferative activity against human KARPAS-422 cells assessed as inhibition of cell growth measured after 72 hrs by CCK-8 method; type: functional, cell-based; details: KARPAS-422, 72 h
[20] = system: KARPAS-422; test: Induction of apoptosis in human KARPAS-422 cells assessed as early apoptotic cells at 2.5 nM incubated for 72 hrs again compound diluted in growth medium measured after 96 hrs by annexin-V FITC and propidium iodide based flow cytometry analysis (reference value: 2.62%); type: functional; details: time 168 hrs
[21] = system: KARPAS-422; test: Induction of cell cycle arrest in human KARPAS-422 cells assessed as accumulation of cells at G2 phase at 5 nM incubated for 72 hrs again compound diluted in growth medium measured after 96 hrs by propidium iodide staining based flow cytometry analysis (reference value: 16.41%); type: functional; details: time 168 hrs
[22] = system: KARPAS-422; test: Induction of apoptosis in human KARPAS-422 cells assessed as late apoptotic cells at 10 nM incubated for 72 hrs again compound diluted in growth medium measured after 96 hrs by annexin-V FITC and propidium iodide based flow cytometry analysis (reference value: 0.74%); type: functional; details: time 168 hrs
[23] = system: KARPAS-422; test: Induction of apoptosis in human KARPAS-422 cells assessed as late apoptotic cells at 20 nM incubated for 72 hrs again compound diluted in growth medium measured after 96 hrs by annexin-V FITC and propidium iodide based flow cytometry analysis (reference value: […]%); type: functional; details: time 168 hrs
[24] = system: KARPAS-422; test: Induction of apoptosis in human KARPAS-422 cells assessed as late apoptotic cells at 5 nM incubated for 72 hrs again compound diluted in growth medium measured after 96 hrs by annexin-V FITC and propidium iodide based flow cytometry analysis (reference value: 0.74%); type: functional; details: time 168 hrs
[25] = system: KARPAS-422; test: Induction of apoptosis in human KARPAS-422 cells assessed as viable cells at 2.5 nM incubated for 72 hrs again compound diluted in growth medium measured after 96 hrs by annexin-V FITC and propidium iodide based flow cytometry analysis (reference value: 95.57%); type: functional; details: time 168 hrs, read-out: Activity
[26] = system: KARPAS-422; test: Induction of apoptosis in human KARPAS-422 cells assessed as late apoptotic cells at 20 nM incubated for 72 hrs again compound diluted in growth medium measured after 96 hrs by annexin-V FITC and propidium iodide based flow cytometry analysis (reference value: 0.74%); type: functional; details: time 168 hrs
[27] = system: KARPAS-422; test: Induction of apoptosis in human KARPAS-422 cells assessed as late apoptotic cells at 2.5 nM incubated for 72 hrs again compound diluted in growth medium measured after 96 hrs by annexin-V FITC and propidium iodide based flow cytometry analysis (reference value: 0.74%); type: functional; details: time 168 hrs
[28] = system: KARPAS-422; test: Induction of cell cycle arrest in human KARPAS-422 cells assessed as accumulation of cells at S phase at 10 nM incubated for 72 hrs again compound diluted in growth medium measured after 96 hrs by propidium iodide staining based flow cytometry analysis (reference value: 35.89%); type: functional; details: time 168 hrs
[29] = system: KARPAS-422; test: Induction of cell cycle arrest in human KARPAS-422 cells assessed as accumulation of cells at G1 phase at 2.5 nM incubated for 72 hrs again compound diluted in growth medium measured after 96 hrs by propidium iodide staining based flow cytometry analysis (reference value: 47.71%); type: functional; details: time 168 hrs
[30] = system: KARPAS-422; test: Induction of cell cycle arrest in human KARPAS-422 cells assessed as accumulation of cells at G1 phase at 10 nM incubated for 72 hrs again compound diluted in growth medium measured after 96 hrs by propidium iodide staining based flow cytometry analysis (reference value: 47.71%); type: functional; details: time 168 hrs
[31] = Metabolic stability in human liver microsomes assessed as half life at 1 uM measured upto 60 mins in presence of NADPH by LC-MS/MS analysis; type: ADME, Microsome
[32] = system: KARPAS-422; test: Induction of cell cycle arrest in human KARPAS-422 cells assessed as accumulation of cells at S phase at 20 nM incubated for 72 hrs again compound diluted in growth medium measured after 96 hrs by propidium iodide staining based flow cytometry analysis (reference value: 35.89%); type: functional; details: time 168 hrs
[33] = system: KARPAS-422; test: Induction of cell cycle arrest in human KARPAS-422 cells assessed as accumulation of cells at G1 phase at 5 nM incubated for 72 hrs again compound diluted in growth medium measured after 96 hrs by propidium iodide staining based flow cytometry analysis (reference value: 47.71%); type: functional; details: time 168 hrs
[34] = system: KARPAS-422; test: Induction of apoptosis in human KARPAS-422 cells assessed as viable cells at 5 nM incubated for 72 hrs again compound diluted in growth medium measured after 96 hrs by annexin-V FITC and propidium iodide based flow cytometry analysis (reference value: 95.57%); type: functional; details: time 168 hrs, read-out: Activity

- IC50 [5]: 0.03 nM
- IC50 [6]: 0.08 nM
- microsomal CLint at 1 µM [9]: 7.87 µL/min/mg
- IC50 [19]: 3.52 nM
- half-life at 1 µM [31]: 2.96 h
Compound: CCN(c1cc(-c2ccc3c(c2)n(C)c(=O)n3C2CCN(C)CC2)cc(C(=O)NCc2c(C)cc(C)[nH]c2=O)c1C)C1CCC(N(C)C)CC1 (centres undefined)
- Activity [1]: 10.74%
- viability at 0.02 µM [2]: 73.8%
- Activity [3]: 4.8%
- Activity [4]: 7.93%
- viability at 0.01 µM [7]: 81.8%
- Activity [8]: 28.46%
- Activity [10]: 2.96%
- Activity [11]: 65.03%
- Activity [12]: 14.6%
- Activity [13]: 16.32%
- Activity [14]: 31.43%
- Activity [15]: 2.29%
- Activity [16]: 3.84%
- Activity [17]: 7.09%
- Activity [18]: Dose-Dependent Effect
- Activity [20]: 4.23%
- Activity [21]: 15.64%
- Activity [22]: 5.47%
- Activity [23]: 6.81%
- Activity [24]: 8.08%
- viability at 0.0025 µM [25]: 89.3%
- Activity [26]: 12.28%
- Activity [27]: 2.57%
- Activity [28]: 26.31%
- Activity [29]: 52.26%
- Activity [30]: 59.1%
- Activity [32]: 24.24%
- Activity [33]: 55.91%
- viability at 0.005 µM [34]: 86.7%
